Laboratory results reported in publication PMC5544727, “The type IV pilus assembly ATPase PilB functions as a signaling protein to regulate exopolysaccharide production in Myxococcus xanthus” (Scientific Reports, 2017).
Residue numbers refer to the chain shown, from its start.

Tests used:
Format in all cases: binding
[1] = molecular target: T1, PilB^WB (T. thermophilus PilB/PilF, TtPilB) (Thermus thermophilus, UniProt Q5SLC9, E718A); assay: fluorescence titration of MANT-ATP with purified protein
T1 sequence (Q5SLC9 1-889 E718A): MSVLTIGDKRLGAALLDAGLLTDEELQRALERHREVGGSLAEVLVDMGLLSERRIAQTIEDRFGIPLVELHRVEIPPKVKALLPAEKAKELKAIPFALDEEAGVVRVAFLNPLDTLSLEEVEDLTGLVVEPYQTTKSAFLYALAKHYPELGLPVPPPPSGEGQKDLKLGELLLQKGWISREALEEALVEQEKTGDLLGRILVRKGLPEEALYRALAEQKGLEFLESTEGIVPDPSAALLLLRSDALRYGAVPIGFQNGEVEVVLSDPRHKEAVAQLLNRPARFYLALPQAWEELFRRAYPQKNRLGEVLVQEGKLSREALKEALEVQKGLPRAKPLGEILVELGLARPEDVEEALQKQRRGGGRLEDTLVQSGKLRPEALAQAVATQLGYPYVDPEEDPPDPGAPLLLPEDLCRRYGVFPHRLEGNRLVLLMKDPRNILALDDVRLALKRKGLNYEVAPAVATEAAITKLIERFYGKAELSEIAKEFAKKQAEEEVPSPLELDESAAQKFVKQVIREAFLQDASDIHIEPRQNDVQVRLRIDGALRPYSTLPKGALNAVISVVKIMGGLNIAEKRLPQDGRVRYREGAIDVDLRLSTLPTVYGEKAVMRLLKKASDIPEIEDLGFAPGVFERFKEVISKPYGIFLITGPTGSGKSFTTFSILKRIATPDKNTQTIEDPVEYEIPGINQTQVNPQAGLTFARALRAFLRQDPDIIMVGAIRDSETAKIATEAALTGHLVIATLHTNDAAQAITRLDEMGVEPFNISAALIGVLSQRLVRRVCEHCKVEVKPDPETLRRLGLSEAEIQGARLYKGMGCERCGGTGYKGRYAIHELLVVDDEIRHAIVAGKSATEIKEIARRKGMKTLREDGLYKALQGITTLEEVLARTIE

[2] = molecular target: T2, PilB^WT (T. thermophilus PilB/PilF, TtPilB) (Thermus thermophilus, UniProt Q72H73); assay: as above
T2 sequence (Q72H73 entry or part of it): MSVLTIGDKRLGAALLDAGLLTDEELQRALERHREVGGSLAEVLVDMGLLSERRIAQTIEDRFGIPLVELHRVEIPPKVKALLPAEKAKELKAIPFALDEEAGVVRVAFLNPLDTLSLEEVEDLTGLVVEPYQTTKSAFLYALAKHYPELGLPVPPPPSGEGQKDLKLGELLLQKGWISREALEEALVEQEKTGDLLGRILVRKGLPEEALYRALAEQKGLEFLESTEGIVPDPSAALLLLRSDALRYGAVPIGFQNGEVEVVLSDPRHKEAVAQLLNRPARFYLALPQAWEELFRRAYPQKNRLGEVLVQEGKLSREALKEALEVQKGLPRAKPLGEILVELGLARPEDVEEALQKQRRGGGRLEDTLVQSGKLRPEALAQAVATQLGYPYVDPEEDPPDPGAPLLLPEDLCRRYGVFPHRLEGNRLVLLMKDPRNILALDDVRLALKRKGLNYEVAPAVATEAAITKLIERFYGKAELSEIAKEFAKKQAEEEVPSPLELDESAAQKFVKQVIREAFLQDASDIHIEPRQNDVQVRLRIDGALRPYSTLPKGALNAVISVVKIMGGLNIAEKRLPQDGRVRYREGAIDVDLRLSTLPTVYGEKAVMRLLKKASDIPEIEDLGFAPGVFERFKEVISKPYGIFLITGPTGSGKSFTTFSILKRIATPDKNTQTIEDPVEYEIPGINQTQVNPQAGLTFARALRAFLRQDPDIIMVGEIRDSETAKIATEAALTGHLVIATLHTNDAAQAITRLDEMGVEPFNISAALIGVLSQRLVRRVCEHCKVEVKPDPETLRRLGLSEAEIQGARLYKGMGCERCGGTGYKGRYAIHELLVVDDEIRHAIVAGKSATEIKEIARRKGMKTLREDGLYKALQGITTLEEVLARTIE

[3] = molecular target: T3, PilB^WA (T. thermophilus PilB/PilF, TtPilB) (Thermus thermophilus, UniProt Q5SLC9, K654A); assay: as above
T3 sequence (Q5SLC9 1-889 K654A): T1 sequence (Q5SLC9 1-889 E718A) with K654A, A718E

[4] = molecular target: T2, PilB^WT (T. thermophilus PilB/PilF, TtPilB); assay: near-UV CD spectral shift, […] ligand
[5] = molecular target: T1, PilB^WB (T. thermophilus PilB/PilF, TtPilB); assay: near-UV CD spectral shift, […] ligand
[6] = molecular target: T1, PilB^WB (T. thermophilus PilB/PilF, TtPilB); assay: DSF thermal stabilization, […] ligand (no Kd)
[7] = molecular target: T2, PilB^WT (T. thermophilus PilB/PilF, TtPilB); assay: DSF thermal stabilization, […] ligand (no Kd)
[8] = molecular target: T3, PilB^WA (T. thermophilus PilB/PilF, TtPilB); assay: near-UV CD spectral shift (less pronounced than WT), […] ligand

Compound: CNc1ccccc1C(=O)O[C@H]1[C@@H](O)[C@H](n2cnc3c(N)ncnc32)O[C@@H]1CO[P@@](=O)(O)O[P@](=O)(O)OP(=O)(O)O (mixture of isomers) [MANT-ATP, 2′-/3′-O-(N-methylanthraniloyl) adenosine-5′-triphosphate]
- Kd [1]: 190 nM
- Kd [2]: 170 nM
- Kd [3]: 1230 nM

Compound: Nc1ncnc2c1ncn2[C@@H]1O[C@H](COP(=O)(O)OP(=O)(O)O)[C@@H](O)[C@H]1O [ADP]
- near-UV CD spectral shift, 0.1 mM ligand [4]: The addition of ADP also shifted the spectra of PilB^WT and PilB^WB, but not that of PilB^WA
- near-UV CD spectral shift, 0.1 mM ligand [5]: The addition of ADP also shifted the spectra of PilB^WT and PilB^WB, but not that of PilB^WA

Compound: Nc1ncnc2c1ncn2[C@@H]1O[C@H](CO[P@](=O)(O)O[P@](=O)(O)NP(=O)(O)O)[C@@H](O)[C@H]1O [AMP-PNP, adenosine 5′-(β,γ-imido)triphosphate]
- DSF thermal stabilization, 0.4 mM ligand (no Kd) [6]: This nucleotide stabilized both PilB^WT and PilB^WB, resulting in the disappearance of the first unfolding transition
- DSF thermal stabilization, 0.4 mM ligand (no Kd) [7]: This nucleotide stabilized both PilB^WT and PilB^WB, resulting in the disappearance of the first unfolding transition

Compound: Nc1ncnc2c1ncn2[C@@H]1O[C@H](COP(=O)(O)OP(=O)(O)OP(=O)(O)O)[C@@H](O)[C@H]1O [ATP]
- near-UV CD spectral shift (less pronounced than WT), 0.1 mM ligand [8]: the shift for PilB^WA is less pronounced compared to those seen for the other two
